Experimental data as given in ChEMBL document CHEMBL2074094 (Arch Biochem Biophys, 1998).

Columns and labels:
[1] = target: ATP-dependent translocase ABCB1 (Homo sapiens, UniProt P08183); experiment: TP_TRANSPORTER: transepithelial transport (basal to apical) in MDR1-expressing LLC-PK1 cells; assay type: functional, cell-based; details: pig
[2] = target: T1, ATP-dependent translocase ABCB1 (Mus musculus, UniProt P21447); experiment: TP_TRANSPORTER: transepithelial transport (basal to apical) in mdr1a-expressing LLC-PK1 cell; assay type: functional, cell-based; details: pig
T1 sequence (P21447 whole entry): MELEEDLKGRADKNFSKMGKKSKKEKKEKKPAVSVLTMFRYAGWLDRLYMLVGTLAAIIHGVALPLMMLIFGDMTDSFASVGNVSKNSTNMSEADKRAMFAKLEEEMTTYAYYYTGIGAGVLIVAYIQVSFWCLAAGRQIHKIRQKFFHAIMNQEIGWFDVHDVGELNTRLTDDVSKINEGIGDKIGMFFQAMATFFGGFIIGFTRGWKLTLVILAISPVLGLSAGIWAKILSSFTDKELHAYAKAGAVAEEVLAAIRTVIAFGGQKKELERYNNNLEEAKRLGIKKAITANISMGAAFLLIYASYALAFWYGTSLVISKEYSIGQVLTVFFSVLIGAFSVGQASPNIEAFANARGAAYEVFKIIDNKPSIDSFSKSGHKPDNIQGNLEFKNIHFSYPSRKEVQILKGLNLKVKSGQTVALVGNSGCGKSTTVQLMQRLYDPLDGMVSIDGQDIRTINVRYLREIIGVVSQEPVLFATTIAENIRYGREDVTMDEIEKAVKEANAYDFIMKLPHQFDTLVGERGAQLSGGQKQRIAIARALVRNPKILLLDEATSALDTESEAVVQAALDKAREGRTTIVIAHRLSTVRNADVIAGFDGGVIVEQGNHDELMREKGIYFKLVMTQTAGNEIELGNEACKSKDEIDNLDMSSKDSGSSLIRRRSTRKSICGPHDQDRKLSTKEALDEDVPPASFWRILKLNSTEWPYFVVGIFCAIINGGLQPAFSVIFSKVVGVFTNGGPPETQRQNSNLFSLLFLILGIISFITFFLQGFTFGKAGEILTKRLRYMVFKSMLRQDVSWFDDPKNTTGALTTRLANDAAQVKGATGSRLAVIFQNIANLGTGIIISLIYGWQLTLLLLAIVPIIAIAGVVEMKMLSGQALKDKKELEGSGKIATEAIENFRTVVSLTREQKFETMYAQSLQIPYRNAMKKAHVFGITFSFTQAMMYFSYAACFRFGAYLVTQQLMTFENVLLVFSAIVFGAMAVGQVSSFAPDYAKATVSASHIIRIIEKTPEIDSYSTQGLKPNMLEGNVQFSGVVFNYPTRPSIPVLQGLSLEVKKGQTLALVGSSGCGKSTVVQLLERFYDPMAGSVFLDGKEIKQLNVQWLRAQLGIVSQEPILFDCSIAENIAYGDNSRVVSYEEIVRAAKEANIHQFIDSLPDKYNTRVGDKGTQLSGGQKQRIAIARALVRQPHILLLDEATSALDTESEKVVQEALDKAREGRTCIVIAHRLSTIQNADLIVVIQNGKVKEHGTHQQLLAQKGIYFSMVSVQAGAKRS

[3] = target: T1, ATP-dependent translocase ABCB1; experiment: TP_TRANSPORTER: tissue concentration in mdr1a(-/-) mouse; assay type: functional, organism-based; details: in vivo

Sequence of ATP-dependent translocase ABCB1 (Homo sapiens, UniProt P08183) (P08183 whole entry): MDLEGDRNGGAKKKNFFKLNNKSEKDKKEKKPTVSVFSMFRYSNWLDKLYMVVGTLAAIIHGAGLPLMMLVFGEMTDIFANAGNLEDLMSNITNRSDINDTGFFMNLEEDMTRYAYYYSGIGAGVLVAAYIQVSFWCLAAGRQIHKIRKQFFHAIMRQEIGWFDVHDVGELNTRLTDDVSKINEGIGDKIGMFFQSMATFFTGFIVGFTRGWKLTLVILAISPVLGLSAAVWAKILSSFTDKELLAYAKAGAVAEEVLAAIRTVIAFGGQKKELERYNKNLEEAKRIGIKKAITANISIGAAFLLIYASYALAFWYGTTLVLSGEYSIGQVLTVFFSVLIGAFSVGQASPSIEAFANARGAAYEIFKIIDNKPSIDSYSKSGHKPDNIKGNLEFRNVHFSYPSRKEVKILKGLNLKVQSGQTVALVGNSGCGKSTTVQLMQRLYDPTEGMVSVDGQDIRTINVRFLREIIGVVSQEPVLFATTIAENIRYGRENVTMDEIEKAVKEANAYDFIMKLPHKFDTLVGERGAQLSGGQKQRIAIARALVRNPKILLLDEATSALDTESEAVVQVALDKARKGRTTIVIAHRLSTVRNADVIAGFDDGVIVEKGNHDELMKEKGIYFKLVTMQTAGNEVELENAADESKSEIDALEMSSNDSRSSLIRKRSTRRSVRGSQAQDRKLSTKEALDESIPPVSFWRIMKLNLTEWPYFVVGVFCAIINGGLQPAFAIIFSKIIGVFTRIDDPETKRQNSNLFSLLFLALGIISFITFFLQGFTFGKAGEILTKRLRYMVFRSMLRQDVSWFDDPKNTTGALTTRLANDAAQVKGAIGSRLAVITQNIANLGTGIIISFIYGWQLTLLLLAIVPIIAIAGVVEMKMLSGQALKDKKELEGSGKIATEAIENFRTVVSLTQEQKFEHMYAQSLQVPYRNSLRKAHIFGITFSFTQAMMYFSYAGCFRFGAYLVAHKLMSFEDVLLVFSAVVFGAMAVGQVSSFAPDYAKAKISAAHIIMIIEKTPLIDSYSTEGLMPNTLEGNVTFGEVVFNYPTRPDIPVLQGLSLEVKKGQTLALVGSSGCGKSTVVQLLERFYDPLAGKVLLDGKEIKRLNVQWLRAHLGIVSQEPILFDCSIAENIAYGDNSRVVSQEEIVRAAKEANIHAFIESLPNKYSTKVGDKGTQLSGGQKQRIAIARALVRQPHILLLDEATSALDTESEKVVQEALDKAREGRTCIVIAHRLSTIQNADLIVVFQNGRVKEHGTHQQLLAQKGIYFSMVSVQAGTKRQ

c1ccc2c(c1)cc1ccc3cccc4ccc2c1c34
Activity [1]: is not a substrate [-]
Activity [2]: is not a substrate [-]

CC1=C(/C=C/C(C)=C/C=C/C(C)=C/C(=O)O)C(C)(C)CCC1 [TRETINOIN]
Activity [1]: is not a substrate [-]
Activity [2]: is not a substrate [-]
Activity [3]: is not a substrate [-]
